# “Also recorded” adds a separate entry of the source.
# Key:
# histone H3 (Lys14) [1] = experiment: Acetylation of histone H3 in area CA1 after contextual fear conditioning; details: injection of MK-801 1 h prior to or SL327 immediately after training
# [2] = Contextual fear conditioning, freezing behavior; details: for spontaneous freezing behavior on re-exposure 24 h after mock training, no shock (FIG. 11D): sodium butyrate 1.2 g/kg vs saline; for spontaneous freezing behavior during mock training, no shock (FIG. 11C): sodium butyrate 1.2 g/kg, 3 min in training chamber
# ERK2 [3] = experiment: P-ERK2 western blot of area CA1 after contextual fear conditioning; details: MK-801 300 μg/kg 1 h prior to training; SL327 100 mg/kg immediately after training
# [4] = tested on: histone H4 (Lys5/Lys8/Lys12/Lys16); experiment: Acetylation of histone H4 in area CA1 after contextual fear conditioning; details: injection of MK-801 1 h prior to or SL327 immediately after training
# [5] = tested on: Schaffer-collateral synapses; experiment: Slice electrophysiology, basal synaptic transmission (baseline fEPSP, input/output, paired-pulse facilitation, tetanus depolarization); assay type: cell-based, Sprague-Dawley rats
# histone H3 (Lys14) [6] = experiment: Acetylation of histone H3, acute hippocampal slices, area CA1
# [7] = tested on: histone H4 (Lys5/Lys8/Lys12/Lys16); experiment: Acetylation of histone H4, acute hippocampal slices, area CA1
# NMDA-Rs = experiment: NMDA-R mediated synaptic transmission in slices with CNQX; assay type: cell-based, Sprague-Dawley rats; details: TSA 1.65 μM over 3 h; CNQX 20 μM, ACSF with 4 mM CaCl2 and no MgCl2
# Protocol: In FIG. 8A, slices were exposed to the AMPA-R antagonist CNQX (20 μM) and perfused with an ACSF containing 4 mM CaCl2 and no MgCl2. The resulting field potentials represent NMDA-R mediated synaptic transmission (English and Sweatt, 1997). […] Representative traces immediately before (dashed) and 186 min after (solid) introduction of TSA are shown. Calibration bar indicates 5 msec and 1 mV. In FIG. 8B, slices were exposed to both TSA (1.65 μM) and the NMDA-R antagonist AP5 (50 μM) 20 min prior to LTP induction. After induction of LTP, the AP5 was washed out but slices were still exposed to TSA. Induction of LTP in the presence of TSA was blocked by AP5 (n=8, F[89,612]=0.5, p<1). […] In FIG. 8C, depolarization was measured during a 100 Hz tetanus in slices treated with either vehicle (0.05% EtOH, n=10) or TSA (1.65 μM, n=10) for 20 min. […]
# In another series of studies, the present inventors investigated the possibility that TSA was affecting properties of NMDA-Rs. To directly measure any long-term affects of TSA on NMDA-Rs, field potentials were recorded in the presence of the AMPA-R antagonist CNQX to isolate the NMDA-R-dependent component of synaptic transmission. […] To further explore the potential affects of TSA on synaptic transmission, we measured the depolarization that occurs during the 100 Hz tetanus used to induce LTP.
# ras transformed cells = details: Taunton et al., 1996; cited from earlier work
# [8] = mouse model; Takahashi et al., 1996; cited from earlier work
# animals deficient in CBP = details: infusion directly into the brain of animals deficient in CBP; Korzus et al., Alarcon et al. (2004); cited from earlier work
# ERK2 [9] = experiment: P-ERK2 western blot, acute hippocampal slices, area CA1; details: slices treated 1 h; PDA 3 μM, FSK 50 μM with 100 μM Ro20-1724, U0126 20 μM, PD98059 50 μM, 4αP 3 μM, dFSK 50 μM with 100 μM Ro20-1724, TSA
# SMA-like mice = details: Chang et al. (2001), cited from earlier work
# [10] = Novel object recognition task; assay type: in vivo, Sprague-Dawley rats
# Protocol: The effect of the exemplary histone deacetylase inhibitor sodium butyrate (NaB) on the exemplary hippocampus-dependent long-term memory paradigm of novel object recognition was determined. In the novel object task, an animal's ability to discriminate between a familiar and a novel object is tested. Novel object recognition training is performed over 4 consecutive days. During each day, animals are placed individually into a small holding cage prior to introduction to the training arena (44 cm^2). The first day consists of habituating animals to the training arena for 10 min. During the second and third days, the training arena has 8 small Duplo® Blocks (Lego®, 2 each: yellow, blue, red, green) placed 2 cm from the edge of the arena. During days 2 and 3, animals are simultaneously habituated to the Duplo blocks and tested for color and arena-position biases. On day 4, 2 distinct novel objects made from Duplo blocks (approx. 10×5×5 cm) are placed in opposite corners of the arena, 2 cm from the walls. Animals are allowed to explore the objects for 10 min. During each session in the arena, movement of the animal will be tracked by an automated video-based system (Limelight) and the arena and Duplo blocks are thoroughly rinsed with 10% EtOH to remove any scent cues left by subjects. During the final training session on day 4, exploration time of each object is tracked. […] Novel object recognition is assessed by calculating preference indices ([TimeNovel−TimeFamilar]) after exposure of animals to one familiar, and one novel object. Animals received an injection of either saline or NaB 45 min before the training session on day 4.
# [11] = tested on: survival motor neuron (SMN) protein; details: SMA lymphoid cell lines; Chang et al. (2001); cited from earlier work
# Passive avoidance task = assay type: in vivo, Sprague-Dawley rats
# Protocol: The effect of the exemplary histone deacetylase inhibitor sodium butyrate (NaB) on the exemplary hippocampus-dependent long-term memory paradigm of passive avoidance was determined. In the passive avoidance task, animals associate a dark chamber with an aversive stimulus. In the passive avoidance task, animals are placed into the lighted side of a 2-chamber shuttle box (Med Associates). An open doorway in the middle of the shuttle box leads to a dark side. Animals are allowed to move into the dark side of the chamber, upon which time the door is closed and animals are allowed to explore the dark side for 5 sec prior to receiving a brief electric shock (2 sec, 0.5 mA). Animals are given an additional 5 sec of exploration time prior to removal from the shuttle box. Latency to enter the dark side of the shuttle box is recorded for all experimental animals during the training day. Passive avoidance memory is assessed by measuring latency to enter the dark side of the shuttle box, minus the latency to enter the dark side on the training day. Passive avoidance memory was only tested once from each animal to eliminate the effect of extinction. NaB (1.2 g/kg) was administered 45 min prior to passive avoidance training.
# [12] = sodium butyrate for 20 min vs vehicle
# [13] = sodium butyrate for 20 min vs vehicle, listed as NaB
# [14] = sodium butyrate 1.2 g/kg 1 h prior to 1-shock contextual fear conditioning, vs saline
# [15] = sodium butyrate 1.2 g/kg 1 h prior to 1-shock contextual fear conditioning, vs saline, listed as NaB
# [16] = slices exposed to NaB for 40 min, data not shown
# [17] = NaB 45 min before the training session on day 4, vs saline
# [18] = NaB 1.2 g/kg 45 min prior to training
smiles,measurement,setting,value
C[C@]12N[C@H](Cc3ccccc31)c1ccccc12 [MK-801],increase in acetylation of histone H3 in area CA1 1 h after fear conditioning,histone H3 (Lys14) [1],inhibited the increase in H3 acetylation; also recorded: No change in H3 acetylation
same,freezing behavior 24 h after contextual fear conditioning (contextual fear memory),"[2]; MK-801 300 μg/kg 1 h prior to training, vs saline",blocked; also recorded: less freezing behavior than animals injected with saline
same,increase in P-ERK2 in area CA1 1 h after fear conditioning,ERK2 [3],blocked the increase in P-ERK2; also recorded: inhibited the increase in P-ERK2
same,histone H4 acetylation in area CA1 after fear conditioning,[4],no effect on histone H4 acetylation
"CC(/C=C/C(=O)NO)=C\[C@@H](C)C(=O)c1ccc(N(C)C)cc1 [TSA, trichostatin A]","input/output relationships and PPF, slices treated with DRB vs DRB and TSA","[5]; 20 min and 3 h after application, data not shown",no significant differences in basal synaptic transmission
same,"depolarization during 100 Hz tetanus, area under the curve",[5]; TSA 1.65 μM for 20 min vs vehicle 0.05% EtOH,No significant difference in area under the curve
same,input/output relationships,[5]; TSA for 20 min vs vehicle,no significant effect; also recorded: No significant differences
same,paired-pulse facilitation,[5]; TSA for 20 min vs vehicle,no significant effect; also recorded: unaffected
same,input/output relationships,[5]; TSA for 3 h vs vehicle,no significant effect; also recorded: No significant differences
same,paired-pulse facilitation,[5]; TSA for 3 h vs vehicle,no significant effect; also recorded: unaffected
same,baseline synaptic efficacy where LTP was not induced,"[5]; continuous TSA, up to 3 h after start of treatment",no effect on synaptic transmission in the absence of high-frequency stimulation; also recorded: no effect on baseline synaptic efficacy
same,histone H3 acetylation,"histone H3 (Lys14) [6]; slices treated 1 h, PDA 3 μM, FSK 50 μM with 100 μM Ro20-1724, 4αP 3 μM, dFSK 50 μM with 100 μM Ro20-1724, U0126 20 μM, PD98059 50 μM, TSA 1.65 μM",significantly increased acetylation of H3; also recorded: increased acetylation of histone H3
same,histone H4 acetylation,"[7]; slices treated 1 h, TSA 1.65 μM",increased the acetylation of histone H4; also recorded: significant effect on H4 acetylation
same,NMDA-R mediated synaptic transmission,NMDA-Rs,unaffected; also recorded: no short or long-term effects
same,hyperacetylation,ras transformed cells,induce hyperacetylation
same,morphology of ras transformed cells,ras transformed cells,cause reversion of ras transformed cells to normal morphology
same,immunosuppression,[8],induces immunosuppression in a mouse model
same,performance in long-term memory tasks,animals deficient in CBP,improved the animals' performance in some long-term memory tasks
same,levels of P-ERK2,ERK2 [9],without affecting levels of P-ERK2; also recorded: no effect on P-ERK2
CCCC(=O)[O-].[Na+] [sodium butyrate],expression of SMN protein in spinal cord motor neurons,SMA-like mice; SMA-like mice,increased expression of SMN protein in spinal cord motor neurons
same,symptoms,SMA-like mice; SMA-like mice,improved symptoms
same,birth rate of severe types of SMA-like mice,SMA-like mice; heterozygous knock-out transgenic SMA-like mice bred,decreased the birth rate of severe types of SMA-like mice
same,input/output relationships,[5]; [12],No significant differences
same,paired-pulse facilitation,[5]; [12],unaffected
same,input/output relationships,[5]; [13],no significant affect on input/output relationships
same,paired-pulse facilitation,[5]; [13],no significant affect
same,freezing behavior during training (FIG. 11A),[2]; [14],unaffected
same,"freezing behavior during training (FIG. 11E, short-term memory study)",[2]; [14],unaffected
same,freezing behavior on re-exposure to the training chamber 24 h after training (FIG. 11B),[2]; [14],significantly more freezing behavior than animals injected with saline
same,freezing behavior during training (FIG. 11A),[2]; [15],no affect on freezing behavior observed during training
same,"freezing behavior during training (FIG. 11E, short-term memory study)",[2]; [15],no significant differences were seen in freezing behavior
same,"freezing behavior on re-exposure 1 h after training, short-term memory (FIG. 11F)",[2]; [15],no effect on freezing behavior
same,"spontaneous freezing behavior on re-exposure 24 h after mock training, no shock (FIG. 11D)",[2],no affect on spontaneous freezing behavior
same,"spontaneous freezing behavior on re-exposure 24 h after mock training, no shock (FIG. 11D)",[2]; listed as NaB,no significant differences in the amount of freezing behavior
same,"spontaneous freezing behavior during mock training, no shock (FIG. 11C)",[2]; vs saline,unaffected
same,"spontaneous freezing behavior during mock training, no shock (FIG. 11C)","[2]; vs saline, listed as NaB",no acute effects on freezing behavior
same,acetylation of histone H3,histone H3 (Lys14) [6]; [16],elevated
same,acetylation of histone H4,[7]; [16],elevated
same,novel object recognition (preference index) 1 day after training,[10]; [17],performed significantly better than animals that received saline
same,novel object recognition (preference index) 7 days after training,[10]; [17],performed significantly better than animals that received saline
same,novel object recognition (preference index) day 14,[10]; [17],A trend for enhanced performance
same,long-term novel object recognition memory,"[10]; NaB 45 min prior to novel object training, vs saline",enhances long-term novel object recognition memory
same,amount of exon 7-containing SMN protein,[11],effective at increasing the amount of exon 7-containing survival motor neuron (SMN) protein
same,passive avoidance memory (latency to enter dark side) 1 day after training,Passive avoidance task; [18],did not affect long-term passive avoidance memory
same,passive avoidance memory (latency to enter dark side) 7 days after training,Passive avoidance task; [18],significant affects on passive avoidance memory
same,passive avoidance memory (latency to enter dark side) 14 days after training,Passive avoidance task; [18],significant affects on passive avoidance memory
same,long-term passive avoidance memory,"Passive avoidance task; NaB 45 min prior to passive avoidance training, vs saline",enhances long-term passive avoidance memory

# Reference: patent US20060018921A1, “Histone deacetylase inhibitors and cognitive applications” (priority 2004, published 2006)
